According to article PMC9933715 (Antimicrobial Agents and Chemotherapy, 2023):
Read-outs that look alike come from different tables or passages of the source.

How the values were obtained:
[1] = test system: ZIKV-R2A (strain FSS13025); assay: microbe, parasite or virus in culture; format: cell-based; settings: Zika virus, Huh7.5, 48 h, read-out: ZIKV-R2A replication (fold DMSO) Mean
[2] = test system: DENV-R2A (Rluc-expressing DENV, serotype 2 strain 16681); assay: microbe, parasite or virus in culture; format: cell-based, Dengue virus; settings: for activity at 50 µM: Dengue virus, Huh7.5, 48 h
Huh7.5 cells = assay: Cell viability, CellTiter-Glo luminescent assay; settings: for Cell viability (fold DMSO) Mean: deconvolution screen, singletons, uninfected Huh7.5
[3] = read-out: DENV-R2A replication (fold DMSO) Mean, deconvolution screen, singletons, 50 µM, Huh7.5, 2 days postinfection
[4] = read-out: DENV-R2A replication (Fold DMSO), 6A1HI analogues, test concentration = 50 µM, Huh7.5 cells
[5] = 6A1HI analogues, test concentration = 50 µM, Huh7.5 cells
[6] = Table S3, NPP3C analogues, 50 µM, Huh7.5
[7] = read-out: DENV-R2A replication (Fold DMSO), Table S3, NPP3C analogues, 50 µM, Huh7.5, 2 days postinfection
[8] = read-out: DENV-R2A replication (fold DMSO), Table 2, 6A1HI analogues, 50 μM, Huh7.5, 2 days postinfection
[9] = Table 2, 6A1HI analogues, 50 μM, Huh7.5, 2 days
[10] = Table S3, NPP3C analogues, 50 µM, Huh7.5, 2 days postinfection

| SMILES | activity at 50 µM [1] [%] | activity at 50 µM [2, 3] [%] | Cell viability (fold DMSO) Mean (Huh7.5 cells; 50 µM) [fold DMSO] | Cell viability (Fold DMSO) (Huh7.5 cells; [5]) | Cell viability (Fold DMSO) (Huh7.5 cells; [6]) | other results |
| --- | --- | --- | --- | --- | --- | --- |
| OCC1CN(Cc2ccccc2)CCO1 (centres unmarked) [PS-4274, OCC1CN(Cc2ccccc2)CCO1] | 116 | 100 | 1.11 | – | – | – |
| Nc1ccc(Cl)nn1 [PS-5236, Nc1ccc(Cl)nn1] | 108 | 108 | 1.18 | – | – | – |
| COc1cc(F)c(C#N)c(F)c1 [PS-6866, COc1cc(F)c(C#N)c(F)c1] | 115 | 97 | 1.01 | – | – | – |
| CC(=O)c1cc(Br)cs1 [Compound 10X-0139, CC(=O)c1cc(Br)cs1] | 108 | 98 | 1.20 | – | – | – |
| O=C1CCCc2cc(O)ccc21 [MS-2425, Oc1ccc2C(=O)CCCc2c1] | 92 | 98 | 1.05 | – | – | – |
| CC(C)(C)OC(=O)N1CCCCn2nc(CO)cc2C1 [Compound 10X-0603, CC(C)(C)OC(=O)N1CCCCn2nc(CO)cc2C1] | 104 | 106 | 1.07 | – | – | – |
| Oc1ccc2[nH]ccc2c1 [PS-3277, Oc1ccc2[nH]ccc2c1] | 74 | 52 | 1.23 | – | – | – |
| CN1CCN(c2ccccc2CN)CC1 [PS-3674, CN1CCN(CC1)c2ccccc2CN] | 89 | 60 | 0.94 | – | – | – |
| Cn1cncc1C(=O)O [AS-5483, Cn1cncc1C(=O)O] | 99 | 99 | 1.12 | – | – | – |
| Clc1cccn2nnnc12 [PS-5645, Clc1cccn2nnnc12] | 101 | 101 | 0.92 | – | – | – |
| N[C@@H]1c2ccccc2C[C@@H]1O [PS-4272, N[C@H]1[C@@H](O)Cc2ccccc12] | 102 | 93 | 1.08 | – | – | – |
| Clc1ncc(CN2CCCCC2)s1 [Compound 8N-010, Clc1ncc(CN2CCCCC2)s1] | 111 | 101 | 0.95 | – | – | – |
| Cc1ccnn1-c1ccccc1 [PS-4283, Cc1ccnn1c2ccccc2] | 106 | 104 | 1.07 | – | – | – |
| CNC(=O)c1cn(C)c2ccccc12 [Compound 9T-1495, CNC(=O)c1cn(C)c2ccccc12] | 98 | 103 | – | – | – | – |
| O=C1CCc2ccccc21 [PS-5770, O=C1CCc2ccccc12] | 103 | 103 | – | – | – | – |
| O=C(NNc1ccccc1)c1ccncc1 [Compound 54] | – | – | – | 0.95 | 0.67 | activity at 50 µM [2, 4]: 106%; activity at 50 µM ([2]; read-out: DENV-R2A replication (fold DMSO), Table 1, NPP3C analogues, 50 μM, Huh7.5, 2 days postinfection): 37%; antiviral activity against DENV-R2A (SAR, in words) ([2]; NPP3C analogues, 50 μM): retains little activity, if any; Cell viability (Fold DMSO) (Huh7.5 cells; Table 1, NPP3C analogues, 50 μM, Huh7.5, 2 days): 0.67 fold DMSO |
| CC(=O)c1ccc2cn(C)nc2c1 [Compound 4] | – | – | – | 0.75 | 0.96 | inhibitory activity against DENV-R2A (SAR, in words) ([2]; 6A1HI analogues, 50 μM): loss of inhibitory activity; activity at 50 µM [2, 4]: 97%; activity at 50 µM [2, 7]: 105%; activity at 50 µM [2, 8]: 97%; Cell viability (Fold DMSO) (Huh7.5 cells; [9]): 0.75 fold DMSO |
| O=C(NNC(=O)c1ccncc1)Nc1ccccc1 [Compound 69] | – | – | – | 1.02 | 0.88 | DENV-R2A replication (Fold DMSO) [2, 5]: 0.98 Fold DMSO; DENV-R2A replication (Fold DMSO) [2, 10]: 1.32 Fold DMSO |
| NC(=O)c1ccc2cn[nH]c2c1 [Compound 75] | – | – | – | 0.99 | – | activity at 50 µM [2, 4]: 106%; activity at 50 µM [2, 8]: 106%; Cell viability (Fold DMSO) (Huh7.5 cells; [9]): 0.99 fold DMSO |
| O=C(NC1CC1)c1ccc(C(F)(F)F)nc1 [Compound 41] | – | – | – | 0.98 | 0.90 | DENV-R2A replication (Fold DMSO) [2, 5]: 1.13 Fold DMSO; DENV-R2A replication (Fold DMSO) [2, 10]: 1.24 Fold DMSO |
| O=C(c1ccccc1)c1cccnc1 [Compound 33] | – | – | – | 0.89 | 0.95 | DENV-R2A replication (Fold DMSO) [2, 5]: 0.95 Fold DMSO; DENV-R2A replication (Fold DMSO) [2, 10]: 1.14 Fold DMSO |
| Nc1cccc(-c2cccnc2)c1 [Compound 10] | – | – | – | 0.93 | 0.93 | DENV-R2A replication (Fold DMSO) [2, 5]: 1.00 Fold DMSO; DENV-R2A replication (Fold DMSO) [2, 10]: 1.04 Fold DMSO |
| CC(=O)c1ccc2c(c1)OCO2 [Compound 42] | – | – | – | 0.93 | 1.15 | inhibitory activity against DENV-R2A (SAR, in words) ([2]; 6A1HI analogues, 50 μM): loss of inhibitory activity; activity at 50 µM [2, 4]: 107%; activity at 50 µM [2, 7]: 153%; activity at 50 µM [2, 8]: 107%; Cell viability (Fold DMSO) (Huh7.5 cells; [9]): 0.93 fold DMSO |
